Source: ChEMBL document CHEMBL4680256, “Indole chalcones: Design, synthesis, in vitro and in silico evaluation against Mycobacterium tuberculosis” (Eur J Med Chem, 2020)
Values after ≈ are worked out from the molar mass of the structure shown.

Experiments:
[1] = system: Mycobacterium tuberculosis; assay: Antimycobacterial activity against Mycobacterium tuberculosis H37Rv assessed as inhibition of bacterial growth at 50 ug/ml preincubated for 72 hrs followed by phAE202 and Cacl2 addition and measured after 4 hrs by luciferase reporter mycobacterio-phage assay; type: functional; details: time 76 hrs
[2] = system: Mycobacterium tuberculosis; assay: Antimycobacterial activity against Mycobacterium tuberculosis H37Rv assessed as reduction in bacterial growth preincubated for 72 hrs followed by phAE202 and Cacl2 addition and measured after 4 hrs by luciferase reporter mycobacterio-phage assay; type: functional; details: time 76 hrs
[3] = system: Mycobacterium tuberculosis; assay: Antimycobacterial activity against Mycobacterium tuberculosis H37Rv assessed as inhibition of bacterial growth at 100 ug/ml preincubated for 72 hrs followed by phAE202 and Cacl2 addition and measured after 4 hrs by luciferase reporter mycobacterio-phage assay; type: functional; details: time 76 hrs
[4] = Cytotoxicity against mouse BA/F3 cells assessed as cell viability at 10 to 50 ug/ml incubated for 24 hrs by WST-1 assay relative to control; type: cell-based, BaF3; details: at 10 to 50 µg/mL, dose 10-50 µg/ml, read-out: Activity
[5] = Cytotoxicity against human Mo7e cells assessed as cell viability at 10 to 50 ug/ml incubated for 24 hrs by WST-1 assay relative to control; type: cell-based, M07E; details: at 10 to 50 µg/mL, dose 10-50 µg/ml, read-out: Activity

| SMILES | inhibition at 50 µg/mL [1] | MIC [2] | inhibition at 100 µg/mL [3] | viability at 24 h [4] | viability at 24 h [5] |
| --- | --- | --- | --- | --- | --- |
| O=C(/C=C/c1c[nH]c2ccccc12)c1ccc(F)cc1 | 50.3% | 188 µM (≈ 49.9 µg/mL) | 54.2% | – | – |
| COc1ccc(C(=O)/C=C/c2c[nH]c3ccccc23)cc1OC | 27.1% | > 325 µM | 31.7% | – | – |
| O=C(/C=C/c1c[nH]c2ccccc12)c1ccc2c(c1)OCO2 | 66.8% | 171 µM (≈ 49.8 µg/mL) | 75.7% | – | – |
| O=C(/C=C/c1c[nH]c2ccccc12)c1ccccn1 | 53.1% | 201 µM (≈ 49.9 µg/mL) | 62% | – | – |
| O=C(/C=C/c1c[nH]c2ccccc12)c1ccc(O)cc1 | 54.9% | 189 µM (≈ 49.8 µg/mL) | 55.1% | – | – |
| Cc1ccc(C(=O)/C=C/c2c[nH]c3ccccc23)cc1 | 41.7% | > 382 µM | 50.9% | – | – |
| O=C(/C=C/c1c[nH]c2ccccc12)c1cccnc1 | 63.1% | 201 µM (≈ 49.9 µg/mL) | 70.7% | – | – |
| O=C(/C=C/c1c[nH]c2ccccc12)c1ccncc1 | 58.4% | 201 µM (≈ 49.9 µg/mL) | 64.2% | – | – |
| O=C(/C=C/c1c[nH]c2ccccc12)c1ccc(Cl)cc1 | 48.6% | > 355 µM | 50.6% | – | – |
| O=C(/C=C/c1c[nH]c2ccccc12)c1ccc2ccccc2c1 | 30.8% | > 336 µM | 41.8% | – | – |
| O=C(/C=C/c1c[nH]c2ccccc12)c1ccc(-c2ccoc2)cc1 | 85.3% | 210 µM (≈ 65.8 µg/mL) | 87.7% | > 60% | > 80% |
| O=C1CCC/C1=C\c1cc2ccccc2[nH]1 | 84.3% | 236 µM (≈ 49.9 µg/mL) | 86.3% | > 60% | > 80% |
| O=C(/C=C/c1c[nH]c2ccccc12)c1cccc([N+](=O)[O-])c1 | 48.7% | > 342 µM | 51.7% | – | – |
| O=C(/C=C/c1c[nH]c2ccccc12)c1ccc(-n2ccnc2)cc1 | 63.6% | 159 µM (≈ 49.8 µg/mL) | 70.7% | – | – |
| O=C1CCCC/C1=C\c1cc2ccccc2[nH]1 | 53.1% | 221 µM (≈ 49.8 µg/mL) | 62% | – | – |
| O=C(/C=C/c1c[nH]c2ccccc12)c1ccc(Br)cc1 | 64.9% | 155 µM (≈ 50.6 µg/mL) | 65.9% | – | – |
| COc1cccc(C(=O)/C=C/c2c[nH]c3ccccc23)c1 | 27.1% | > 360 µM | 36.7% | – | – |
| O=C(/C=C/c1c[nH]c2ccccc12)c1ccc(Cl)cc1Cl | 52.3% | 164 µM (≈ 51.9 µg/mL) | 55.2% | – | – |
| O=C(/C=C/c1c[nH]c2ccccc12)c1ccc(-c2ccsc2)cc1 | 62% | 197 µM (≈ 64.9 µg/mL) | 63.4% | – | – |
| O=C(/C=C/c1c[nH]c2ccccc12)c1cccc(C(F)(F)F)c1 | 24.5% | > 317 µM | 26.3% | – | – |
| O=C(/C=C/c1c[nH]c2ccccc12)N1CCN(c2ccc(O)cc2)CC1 | 63.8% | 143 µM (≈ 49.7 µg/mL) | 76.4% | – | – |
| O=C(/C=C/c1c[nH]c2ccccc12)c1ccc(-c2cccs2)cc1 | 82% | 197 µM (≈ 64.9 µg/mL) | 87.2% | > 60% | > 80% |
| O=C(/C=C/c1c[nH]c2ccccc12)c1ccc(C(F)(F)F)cc1 | 29.7% | > 317 µM | 31.2% | – | – |
| Nc1cccc(C(=O)/C=C/c2c[nH]c3ccccc23)c1 | 37.2% | > 381 µM | 48.7% | – | – |
| O=C(/C=C/c1c[nH]c2ccccc12)c1ccc(-c2ccc[nH]2)cc1 | 26.4% | > 423 µM | 49.4% | – | – |
| NNC(=O)c1ccncc1 [ISONIAZID] | – | 1.4 µM (≈ 0.192 µg/mL) | > 99% | – | – |
| CO[C@H]1/C=C/O[C@@]2(C)Oc3c(C)c(O)c4c(O)c(c(/C=N/N5CCN(C)CC5)c(O)c4c3C2=O)NC(=O)/C(C)=C\C=C\[C@H](C)[C@H](O)[C@@H](C)[C@@H](O)[C@@H](C)[C@H](OC(C)=O)[C@@H]1C [RIFAMPIN] | – | 2.4 µM (≈ 1.98 µg/mL) | > 99% | – | – |
